Assay results taken from BigSolDB 2.1.

CC(C)OC(=O)[C@H](C)N[P@](=O)(OC[C@H]1O[C@@H](n2ccc(=O)[nH]c2=O)[C@](C)(F)[C@@H]1O)Oc1ccccc1
solubility (mole fraction)
Details	278.15 K	283.15 K	288.15 K	293.15 K	298.15 K	303.15 K	308.15 K	313.15 K	318.15 K
in acetone	0.0275	0.0343	0.0435	0.0538	0.066	0.0796	0.0951	0.113	0.134
in acetonitrile	0.00484	0.00629	0.00812	0.0101	0.0127	0.0156	0.019	0.0234	0.0286
in cyclohexane	–	6.09e-07	9.4e-07	1.44e-06	2.09e-06	3.05e-06	4.33e-06	6.11e-06	8.66e-06
in ethanol	0.022	0.0274	0.0342	0.0416	0.0505	0.0599	0.0712	0.0842	0.0997
in ethyl acetate	0.00263	0.00362	0.00486	0.00641	0.0084	0.0108	0.0139	0.0178	0.0228
in n-butanol	0.00935	0.0116	0.0144	0.0182	0.0225	0.0278	0.034	0.0413	0.0501
in toluene	4.46e-06	7.43e-06	1.1e-05	1.75e-05	2.67e-05	4.02e-05	6.15e-05	9.44e-05	0.000144
in water	1.18e-05	1.85e-05	2.59e-05	3.65e-05	5.05e-05	7.02e-05	9.6e-05	0.000131	0.00017
